# Experimental data: patent US6936628B2, “Oral administration of epothilones” (Bristol-Myers Squibb Company, priority 2002, dated 2005)
# pIC50: −log10 of the molar value. Where “and” joins values, the source holds several entries; their conditions need not be identical. Identical values can stand only once. Like-named read-outs stand apart in the source and are kept apart here.
# Tests used:
# [1] = system: panel of tumor cell lines; assay: In vitro cytotoxicity assay (MTS), panel of tumor cell lines; type: cell-based; conditions: Homo sapiens; 7 of the 8 cell lines tested, 72-hour incubation
# [2] = system: sc Pat-7 human ovarian carcinoma; assay: Minimum effective infusional dose regimen versus sc Pat-7; type: in vivo, mice; conditions: constant-rate IV infusion over 10 hr
# [3] = Stability in dog EDTA plasma and whole blood; type: in vitro ADME
# Description: Plasma samples from exploratory pharmacokinetic studies were analyzed for Compound A concentrations using an LC/MS/MS assay with a standard curve range of 3.9 to 2000 ng/mL. In pharmacodynamic studies, Compound A concentrations were determined using an LC/MS/MS assay with a standard curve range of 10-40000 nM (5.23-20920 ng/mL) in mouse plasma. For toxicology studies, validated LC/MS/MS assays were used to determine the concentrations of Compound A in rat and dog plasma. Analytical data management for the validated assays was carried out using Watson®. The standard curve range for the validated assay in both matrices was 2 to 500 ng/mL of Compound A. The coefficient of variation for the inter- and intra-assay precision in rat and dog plasma was within 9% and the accuracy was greater than 92%. […] Compound A was stable for at least 4 months at !20EC and through at least 3 freeze-thaw cycles in rat and dog EDTA plasma. In addition, Compound A was stable in fresh rat and dog EDTA whole blood for at least 1 h at 4EC.
# [4] = Pharmacokinetics in mice; type: in vivo; conditions: nude mice
# Description: The pharmacokinetics of Compound A was evaluated in nude mice after IV (5 mg/kg) and oral (15 mg/kg) administration (n=15 mice/group). Compound A was dissolved in a mixture of cremophor:ethanol:water (10:10:80) and cremophor:ethanol:phosphate buffer, pH 8 (10:10:80) for the preparation of IV and oral doses, respectively. Plasma concentrations of Compound A were determined at 10 and 45 min, and 2, 4, and 6 hours postdose from 3 mice/time point/group. Composite plasma concentration-time profiles were constructed for pharmacokinetic analysis. […] The VSS values was 38 L/kg which is greater than total body water of about 0.7 L/kg, indicating significant extravascular distribution. The T-HALF value, both after IV and oral administration, was 3.3 h.
# [5] = Single dose pharmacokinetic study in dogs; type: in vivo, beagle dogs
# Description: The vehicle used for both IV and oral dose was propylene glycol:ethanol:phosphate buffer (pH 7.4-8.0) (40:5:55). […] The VSS value after IV administration was 4.7 L/kg, which is greater than the reported total body water of 0.6 L/kg in dogs, indicating significant extravascular distribution of Compound A. The T-HALF of Compound A was 3.9 and 3.1 h after IV and oral administration, respectively.
# [6] = Single dose IV toxicokinetic study in dogs; type: in vivo; conditions: both sexes, dog, plasma, IV infusion; for Cmax: combined across gender
# Description: The single dose IV toxicokinetics of Compound A were evaluated in dogs as a part of a toxicology study. Compound A, prepared in 50 mM citrate buffer (pH 5), was given by IV infusion (over approximately 2-3 min period) at nominal doses of 0.07 and 0.35 mg/kg (the actual doses were 0.055 and 0.27 mg/kg, respectively) to 2 dogs/sex/dose. Blood samples were collected at 5 and 30 minutes, and at 1, 3, 6, 12, and 24 h after dosing. Plasma concentrations of Compound A were determined using a validated LC/MS/MS assay with a standard curve range of 2-500 ng/mL. […] Definitive comparison between sex was not made due to limited sample size per sex; however, it appeared that there were no marked differences in the systemic exposure to Compound A between male and female dogs.
# [7] = Oral bioavailability in humans; conditions: in vivo, human patients
# Excerpt: Compound A was well absorbed orally, providing a favorable drug exposure profile that is consistant with efficacious exposure in preclinical cancer models.
# [8] = biological target: CYP3A4 (Homo sapiens, UniProt P08684); assay: Metabolism by specific CYP enzymes (human liver microsomes with specific inhibitors); type: in vitro ADME
# Sequence of CYP3A4 (P08684 whole entry): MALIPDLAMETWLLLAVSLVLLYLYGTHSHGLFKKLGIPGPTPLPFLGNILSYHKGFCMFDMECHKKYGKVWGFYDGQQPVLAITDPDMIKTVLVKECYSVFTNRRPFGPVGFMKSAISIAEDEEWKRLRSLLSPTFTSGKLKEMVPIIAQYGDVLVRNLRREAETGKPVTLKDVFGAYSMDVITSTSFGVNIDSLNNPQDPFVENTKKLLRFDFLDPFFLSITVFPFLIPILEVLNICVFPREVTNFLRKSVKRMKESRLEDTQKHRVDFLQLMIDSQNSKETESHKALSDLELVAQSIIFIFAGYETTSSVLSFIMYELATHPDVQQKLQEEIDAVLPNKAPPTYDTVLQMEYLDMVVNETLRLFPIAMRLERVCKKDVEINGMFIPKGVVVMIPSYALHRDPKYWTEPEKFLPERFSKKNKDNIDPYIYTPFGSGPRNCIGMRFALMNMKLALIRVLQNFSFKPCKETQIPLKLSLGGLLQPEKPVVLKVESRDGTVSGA
# Description: Compound A was incubated with human liver microsomes along with compounds specific for the inhibition of individual cytochrome P450s commonly involved in drug metabolism. The inhibitors used were; furafylline (CYP1A2), sulfaphenazole (CYP2C9), tranylcypromine (CYP2C19), quinidine (CYP2D6), troleandomycin (CYP3A4), and ketoconazole (CYP3A4).
# [9] = Stability of diluted solutions; type: physicochemical; conditions: diluted with 0.9% Sodium Chloride Injection, 5° C. or room temperature and room light
# [10] = system: Pat-7 human ovarian carcinoma; conditions: Balb/c nu/nu, mouse, in vivo, iv
# [11] = rat, in vivo
# [12] = in vivo; conditions: male, Sprague-Dawley, rat, plasma, 2 mg/kg, rats, IA 2 mg/kg
# Description: A total of eight rats were divided into four groups (three IA groups and one oral group), with two rats in each group. […] The vehicle used for the oral administration was propylene glycol:ethanol:phophate buffer, 1 M, pH 8 (58:12:30).
# [13] = in vitro; conditions: human, Caco-2
# [14] = Liver S9 incubation, dog; conditions: dog liver S9, 20 μM
# [15] = Microsomal incubation, rat; conditions: rat liver microsomes + NADPH, 20 μM
# [16] = biological target: CYP2D6 (Homo sapiens, UniProt P10635); assay: Inhibition of human CYP enzymes, CYP2D6
# Sequence of CYP2D6 (P10635 whole entry, the tested form may be a part): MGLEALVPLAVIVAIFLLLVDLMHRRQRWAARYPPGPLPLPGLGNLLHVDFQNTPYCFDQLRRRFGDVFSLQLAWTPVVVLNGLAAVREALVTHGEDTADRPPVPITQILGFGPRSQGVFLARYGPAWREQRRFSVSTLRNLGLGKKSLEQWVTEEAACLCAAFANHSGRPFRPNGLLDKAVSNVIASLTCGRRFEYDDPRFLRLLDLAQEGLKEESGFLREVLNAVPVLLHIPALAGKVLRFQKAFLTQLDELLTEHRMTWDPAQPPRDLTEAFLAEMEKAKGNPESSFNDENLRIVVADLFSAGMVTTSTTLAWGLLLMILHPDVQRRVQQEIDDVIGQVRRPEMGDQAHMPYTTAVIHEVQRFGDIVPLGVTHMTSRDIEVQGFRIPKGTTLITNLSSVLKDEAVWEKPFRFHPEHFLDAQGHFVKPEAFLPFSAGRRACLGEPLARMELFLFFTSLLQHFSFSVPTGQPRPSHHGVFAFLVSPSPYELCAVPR
# [17] = Plasma apparent steady-state concentration after 10-h IV infusion
# [18] = 40 mg/m2, oral, 40 mg/m^2, n=10
smiles,measurement,setting,value
"C/C(=C\c1csc(CN)n1)[C@@H]1C[C@@H]2O[C@]2(C)CCC[C@H](C)[C@H](O)[C@@H](C)C(=O)C(C)(C)[C@@H](O)CC(=O)O1 (relative stereo) [Compound A, [1S-[1R*,3R*(E),7R*,10S*,11R*,12R*,16S*]]-3-[2-[2-(aminomethyl)-4-thiazolyl]-1-methylethenyl]-7,11-dihydroxy-8,8,10,12,16-pentamethyl-4,17-dioxabicyclo[14.1.0]heptadecane-5,9-dione]",pIC50,[1],8.46 to 9.05
same,Tumor growth delay equivalent to LCK,[2]; 2 mg/kg,0.1
same,Tumor growth delay equivalent to LCK,[2]; 4 mg/kg,0.7
same,Tumor growth delay equivalent to LCK,[2]; 8 mg/kg,1.1
same,Tumor growth delay equivalent to LCK,[2]; 16 mg/kg,1.7
same,stable through freeze-thaw cycles,[3]; dog EDTA plasma,at least 3 freeze-thaw cycles
same,stable in plasma prior to processing,"[3]; dog EDTA plasma, 4EC",at least 4 h
same,stable in frozen plasma,"[3]; dog EDTA plasma, !20EC",at least 4 months
same,stable in fresh whole blood,"[3]; dog EDTA whole blood, 4EC",at least 1 h
same,stable in an autosampler after processing,"[3]; dog plasma samples, 4EC",at least 5 days
same,Vd,"[4]; mouse, plasma, IV 5 mg/kg, read-out: VSS",38 L/kg
same,bioavailability,"[4]; mouse, plasma, oral 15 mg/kg vs IV 5 mg/kg, read-out: absolute oral bioavailability",21%
same,CLT,[4]; IV 5 mg/kg,9.12 L/h/kg
same,T-HALF,[4]; IV 5 mg/kg,3.3 h
same,T-HALF,[4]; oral 15 mg/kg,3.3 h
same,CLT,[5]; IV 0.5 mg/kg,about 25.7 mL/min/kg
same,T-HALF,[5]; IV 0.5 mg/kg,3.9 h
same,Vd,"[5]; male, beagle, dog, plasma, IV 0.5 mg/kg, read-out: VSS",4.7 L/kg
same,bioavailability,"[5]; male, beagle, dog, plasma, oral 1 mg/kg vs IV 0.5 mg/kg, read-out: mean absolute oral bioavailability",40%
same,T-HALF,[5]; oral 1 mg/kg,3.1 h
same,AUC,[6]; 0.055 mg/kg,0.0483 µg·h/mL
same,Cmax,[6]; 0.055 mg/kg,0.104 µg/mL
same,AUC,[6]; 0.27 mg/kg,0.362 µg·h/mL
same,Cmax,[6]; 0.27 mg/kg,0.664 µg/mL
same,AUC,[7]; [18],0.631 µg·h/mL
same,Cmax,[7]; [18],0.177 µg/mL
same,half-life,"[7]; 40 mg/m2, oral, 40 mg/m^2, n=10, read-out: Half-Life (SD) (converted)",29.8 h
same,Tmax,"[7]; 40 mg/m2, oral, 40 mg/m^2, n=10, read-out: Tmax, median (minimum, maximum)",1 h
same,bioavailability,"[7]; oral vs IV, 40 mg/m^2, n = 9, read-out: Bioavailability (SD)",27%
same,"effect of CYP3A4 inhibitors (troleandomycin, ketoconazole) on biotransformation",[8],completely inhibited
same,time solutions are stable after final dilution,[9],≤ 24 h
same,OD (optimal dose or maximum tolerated dose),[10],8 mg/kg
same,drug related material in bile,[11],No drug related material was detected
same,percent of the dose recovered in the urine as parent,"[11]; iv, 2 mg/kg",approximately 18%
same,percent of the dose recovered in the urine as parent,"[11]; po, 8 mg/kg",~2.4%
same,AUC,"[12]; mean AUC, vehicle 1 ethanol:water (10:90)",0.133 µg·h/mL
same,AUC,"[12]; mean AUC, vehicle 2 cremophor:ethanol:water (10:10:80)",0.708 µg·h/mL
same,AUC,"[12]; pH 7.4, mean AUC, vehicle 3 propylene glycol:ethanol:phosphate buffer pH 7.4 (40:5:55)",0.21 µg·h/mL
same,Papp at 200 μM,[13],60 nm/s
same,rate of oxidative metabolism,[14],0.03
same,rate of oxidative metabolism,[15],0.05 mmol/min/mg protein
same,pIC50,[16],< 4.15
same,apparent steady-state concentrations,"[17]; doses of 2 and 4 mg/kg, 10-h IV infusion, mouse plasma",18-31 ng/mL and 35-60 nM
same,MEC,"[17]; estimated from plasma Css, 10-hr IV infusion, Pat-7 model",35 to 60 nM
